Reference: BigSolDB 2.1

CC(C)[C@H](C)[C@@H](O)[C@H](O)[C@@H](C)[C@H]1CC[C@H]2[C@@H]3COC(=O)[C@H]4C[C@H](O)[C@H](O)C[C@]4(C)[C@H]3CC[C@]12C
solubility (mole fraction)
Details | 278.15 K | 283.15 K | 288.15 K | 293.15 K | 298.15 K | 303.15 K | 308.15 K | 313.15 K | 318.15 K | 323.15 K
in THF | 0.16 | 0.185 | 0.21 | 0.239 | 0.269 | 0.297 | 0.328 | 0.361 | 0.395 | 0.43
in acetone | 0.09 | 0.106 | 0.124 | 0.145 | 0.166 | 0.188 | 0.213 | 0.239 | 0.267 | 0.296
in acetonitrile | 0.00057 | 0.00067 | 0.00078 | 0.0009 | 0.00103 | 0.00118 | 0.00133 | 0.00149 | 0.00167 | 0.00186
in chloroform | 0.00083 | 0.00095 | 0.00109 | 0.00125 | 0.00142 | 0.0016 | 0.00181 | 0.00204 | 0.00229 | 0.00256
in isopropanol | 0.00031 | 0.00036 | 0.00041 | 0.00047 | 0.00054 | 0.00062 | 0.0007 | 0.0008 | 0.00091 | 0.00104
in methanol | 0.0321 | 0.0377 | 0.0442 | 0.0511 | 0.0588 | 0.0675 | 0.077 | 0.0875 | 0.099 | 0.112
in n-butanol | 0.00046 | 0.00054 | 0.00062 | 0.00071 | 0.00082 | 0.00093 | 0.00106 | 0.00121 | 0.00137 | 0.00155
in n-heptane | 7e-05 | 0.0001 | 0.00014 | 0.00018 | 0.00022 | 0.00028 | 0.00033 | 0.00039 | 0.00046 | 0.00052
in n-hexane | 9e-05 | 0.00012 | 0.00016 | 0.0002 | 0.00025 | 0.00031 | 0.00037 | 0.00044 | 0.00051 | 0.00059
